Results published in US20170298051A1, “ACTIVATOR OF ADIPONECTIN RECEPTOR” (THE UNIVERSITY OF TOKYO, priority 2013, published 2017).

Legend:
AdipoR1 [1] = target: T1, AdipoR1 (Homo sapiens, UniProt Q96A54); test: Measurement of AMPK phosphorylation ability (Assay 2), HEK 293T cells with unrelated or AdipoR1 siRNA; format: cell-based; parameters: HEK 293T cells (ATCC; CRL-3216, medium; host or cells: HEK 293T
T1 sequence (Q96A54 1-375): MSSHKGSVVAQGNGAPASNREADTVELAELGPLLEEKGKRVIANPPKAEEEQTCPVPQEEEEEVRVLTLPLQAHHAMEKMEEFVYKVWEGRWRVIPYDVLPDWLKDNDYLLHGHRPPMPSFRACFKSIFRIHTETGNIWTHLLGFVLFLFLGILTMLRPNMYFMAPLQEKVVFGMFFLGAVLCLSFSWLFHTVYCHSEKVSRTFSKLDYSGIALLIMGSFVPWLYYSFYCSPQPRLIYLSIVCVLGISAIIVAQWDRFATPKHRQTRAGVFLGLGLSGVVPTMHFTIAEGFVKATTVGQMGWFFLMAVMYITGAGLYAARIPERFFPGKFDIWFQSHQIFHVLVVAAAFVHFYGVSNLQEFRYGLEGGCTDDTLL
Procedure: HEK 293T cells (medium; DMEM, 10% FBS) were cultured in a 24-well plate until they reached 60% confluency (37° C., 5% CO2).
First, 1 μL of Lipofectamine RNAiMAX and 50 μL of OPTI-MEM were mixed, and then 5 μM siRNA (sense siRNA sequence: […]tt (SEQ ID NO: 1)) and 50 μL of OPTI-MEM were mixed and the resultants were left to stand at room temperature for 5 minutes. And then, the 1 μL Lipofectamine RNAiMAX/50 μL OPTI-MEM and the 5 μM siRNA/50 μL OPTI-MEM were mixed, and the resultant was left to stand at room temperature for 10 minutes, which was added to the cells.
After 5 minutes, the medium (DMEM, 10% FBS) was replaced, and after starvation on the next day, a test compound listed in Tables 10 and 11 was added thereto. After 10 minutes, the medium was discarded and the plate was frozen with liquid nitrogen.
The respective amounts of pAMPK and AMPK were determined in the same way as in the above Assay 1.

AdipoR1 [2] = target: T1, AdipoR1; test: Measurement of AMPK phosphorylation ability (Assay 1), HEK 293T cells, Western blotting; format: cell-based; parameters: HEK 293T cells (ATCC; CRL-3216, medium; host or cells: HEK 293T; details: 10 minutes
Procedure: The AMPK phosphorylation ability of the respective compounds according to the present invention was measured by using differentiated C2C12 cells or HEK 293T cells.
HEK 293T cells (ATCC; CRL-3216, medium; DMEM, Fetal Bovine Serum (FBS)) were cultured in a 12- or 24-well plate until they reached 100% confluency (37° C., 5% CO2).
After starvation, a test compound listed in Tables 10 and 11 (concentration: 25 μM, 50 μM) was added thereto, and after 10 minutes, the medium was discarded and the plate was frozen with liquid nitrogen.
To the 12- or 24-well cell plate which had been frozen was added 100 or 150 μL of Cell lysis buffer pH 7.4 (50 mM HEPES (pH 7.4), 2 mM sodium orthovanadate, 10 mM sodium pyrophosphate, 10 mM NaF, 2 mM EDTA, 2 mM EGTA, 0.1% (v/v) NP-40, 0.2 mM PMSF), and the cells were scraped off with a cell scraper, suspended and transferred into a micro centrifugal tube. And then, the cells were ultrasonically crushed (1 second×3 times) with a sonicator. Centrifugation was performed at 4° C. at 15,000 rpm for 15 minutes, and the supernatant was recovered into a new tube.
To 100 μL of the supernatant was added 25 μL of 5× sample buffer (280 mM Tris-HCl (pH 6.9), 40% glycerol, 10% (3-mercaptoethanol, 13% SDS, a small amount of bromophenol blue) and mixed together. The rest of the supernatant was used for protein quantification, and the protein concentrations were uniformed by adding 1× sample buffer depending on the concentration of each sample.
An electrophoresis chamber was filled with 1× SDS buffer (25 mM Tris-HCl, 250 mM glycine, 0.1% SDS), and the sample was applied to a well of polyacrylamide gel. Electrophoresis was performed until the bromophenol blue in the sample reached to the bottom of the gel.
A filter paper was soaked in 1× Transfer buffer sufficiently, above which the PVDF membrane and the gel after electrophoresis were stacked in this order, and thereabove a filter paper which had been soaked in 1× Transfer buffer sufficiently was further stacked, from which an air was removed and the resultant was set in semi-dry type transfer apparatus and transferred (7V, 35 minutes).
An unnecessary portion of the blotted membrane was cutoff, and the rest was immediately soaked in blocking buffer (5% skimmed milk in Rinse buffer), and shaken at room temperature at 40 rpm for 3 hours.
After blocking, the membrane was transferred into Rinse buffer, and washed at room temperature for 10 minutes while shaking. The membrane was soaked in a primary antibody solution (AMPK alpha Antibody (Cell signaling; #2532) 1/1,000 in Rinse buffer, Phospho-AMPK alpha (Thr172) (40H9) antibody (Cell signaling; #2535) 1/1,000 in Rinse buffer), and shaken at 4° C. at 40 rpm overnight.
The membrane was soaked in a secondary antibody solution (goat anti-rabbit IgG-HRP Antibody (Santa Cruz; sc-2030) 1/2,000 in Rinse buffer), and shaken at room temperature at 40 rpm for 1 hour.
After the membrane was washed for 45 minutes in the same way as after the primary antibody reaction, the membrane was soaked in a chemiluminescent reaction solution (ECL Western Blotting Detection Reagents, GE Healthcare) for about 1 minute. An excess of the reaction solution was removed, and then the membranes were arranged on a transparent film and sandwiched with it, with which an X-ray film was exposed in a darkroom (for about several seconds to 60 seconds) to develop the film.
The X-ray film was scanned to take the image, for which the band was measured by using the image analysis software “Image J” to determine the respective amounts of pAMPK and AMPK.

Row | Structure (SMILES) | pAMPK/AMPK (ratio) siRNA, AdipoR1 siRNA (AdipoR1 [1]) [ratio] | pAMPK/AMPK (ratio) siRNA, unrelated siRNA (AdipoR1 [1]) [ratio] | pAMPK/AMPK (%) (AdipoR1 [2]; 25 μM) | pAMPK/AMPK (%) (AdipoR1 [2]; 50 μM)
1 | O=C(COc1ccc(C(=O)c2ccc(Cl)cc2)cc1)NC1CCN(Cc2ccccc2)CC1 [Compound 11] | 3.75 | 2.58 | 83.12 | 102.94
2 | O=C(COc1ccc(C(=O)c2ccccc2)cc1)NC1CCN(Cc2ccc(Cl)cc2)CC1 [Compound 12] | 2.47 | 2.51 | 106.36 | 82.93
3 | COc1cc(C(C)=O)ccc1OCC(=O)NC1CCN(Cc2ccc(Cl)c(Cl)c2)CC1 [Compound 15] | 3.49 | 3.27 | 88.71 | 88.18
4 | NC(=O)c1ccc(OCC(=O)NC2CCN(Cc3ccc(Cl)c(Cl)c3)CC2)cc1 [Compound 19] | 3.75 | 3.88 | 83.61 | 95.02
5 | NC(=O)c1ccc(OCC(=O)NC2CCN(Cc3ccc(Br)cc3)CC2)cc1 [Compound 21] | 1.92 | 2.34 | 81.11 | 83.12
6 | Cc1ccc(OCC(=O)NC2CCN(Cc3ccc(Cl)c(Cl)c3)CC2)cc1 [Compound 30] | 2.35 | 2.49 | 122.70 | 89.75
7 | CCc1ccc(OCC(=O)NC2CCN(C(C)c3ccccc3)CC2)cc1 (stereo not drawn) [Compound 31] | 2.61 | 3.17 | 80.60 | 80.60
8 | O=C(COc1ccc(F)cc1)NC1CCN(Cc2ccc(Cl)c(Cl)c2)CC1 [Compound 32] | 4.14 | 3.38 | 88.09 | 91.40
9 | O=C(COc1ccc(Cl)cc1)NC1CCN(Cc2ccc(Cl)c(Cl)c2)CC1 [Compound 33] | 2.63 | 2.88 | 106.31 | 84.10
10 | O=C(COc1ccc(C(F)(F)F)cc1)NC1CCN(C(=O)c2ccccc2F)CC1 [Compound 34] | 2.01 | 2.32 | 80.64 | 80.50
11 | COc1ccc(CN2CCC(NC(=O)COc3ccc(C(F)(F)F)cc3)CC2)cc1F [Compound 35] | 2.01 | 3.38 | 80.77 | 83.74
12 | O=C(COc1ccc(Oc2ccccc2)cc1)NC1CCN(Cc2ccccc2)CC1 [Compound 36] | 2.56 | 2.52 | 80.42 | 84.19
13 | COc1ccc(OCC(=O)NC2CCN(Cc3ccc(Cl)c(Cl)c3)CC2)cc1 [Compound 37] | 2.69 | 3.11 | 83.83 | 80.12
14 | CCOc1ccc(OCC(=O)NC2CCN(Cc3ccc(Cl)c(Cl)c3)CC2)cc1 [Compound 38] | 2.43 | 2.67 | 112.70 | 87.54
15 | CCOc1ccc(OCC(=O)NC2CCN(Cc3cccc(C(F)(F)F)c3)CC2)cc1 [Compound 40] | 2.25 | 2.25 | 80.20 | 91.33
16 | Cc1ccccc1CN1CCC(NC(=O)COc2ccc(Oc3ccccn3)cc2)CC1 [Compound 46] | 2.74 | 2.58 | 80.93 | 80.11
17 | CC(c1ccccc1)N1CCC(NC(=O)COc2ccc(Oc3ccccn3)cc2)CC1 (stereo not drawn) [Compound 47] | 2.44 | 2.78 | 80.31 | 80.39
18 | O=C(COc1ccc(Oc2ccccn2)cc1)NC1CCN(Cc2ccc(F)cc2)CC1 [Compound 48] | 3.16 | 3.42 | 80.04 | 85.28
19 | CC(C)(C)c1ccc(C(=O)NCCC(=O)N2CCN(Cc3cccc4cccnc34)CC2)cc1 [Compound 53] | 2.04 | 2.26 | 91.44 | 81.80
20 | CC(C)c1ccc(CN2CCN(C(=O)CCNC(=O)c3ccc([N+](=O)[O-])cc3)CC2)cc1 [Compound 64] | 3.57 | 4.86 | 80.29 | 83.01
21 | COc1ccc(OC)c(CN2CCN(C(=O)CCNC(=O)c3ccc([N+](=O)[O-])cc3)CC2)c1 [Compound 66] |  |  | 43.00 | 55.80
22 | O=C(NCCC(=O)N1CCN(Cc2cccc(C(F)(F)F)c2)CC1)c1ccc([N+](=O)[O-])cc1 [Compound 67] |  |  | 70.98 | 70.70
23 | COc1ccc(CN2CCN(C(=O)CCNC(=O)c3ccc([N+](=O)[O-])cc3)CC2)cc1F [Compound 68] |  |  | 53.92 | 45.94
24 | COc1ccccc1CN1CCN(C(=O)CCNC(=O)c2ccc3ccccc3c2)CC1 [Compound 71] |  |  | 78.18 | 65.40
25 | COc1cccc(C(=O)N2CCN(CCC(=O)NC3CC3)CC2)c1 [Compound 72] |  |  | 42.05 | 46.92
